Measured values taken from patent US11834414B2, “1-methyl-4-[(4-phenylphenyl)sulfonylmethyl]cyclohexyanol and 1-methyl-4-[[4-(2-pyridyl)phenyl]sulfonylmethyl]cyclohexanol compounds and their therapeutic use” (Modern Biosciences Limited, priority 2018, dated 2023).
Entries after “also recorded” stand apart in the source; their conditions may differ. Read-outs that look alike come from different tables or passages of the source.

Legend:
[1] = target: CYP2C9 (Homo sapiens (Human), UniProt P11712); test: Human Cytochrome P450 Inhibition Assay (Bactosomes); type: in vitro ADME; conditions: recombinant Bactosomes, 10 minutes, 37° C.
Sequence of CYP2C9 (P11712 whole entry): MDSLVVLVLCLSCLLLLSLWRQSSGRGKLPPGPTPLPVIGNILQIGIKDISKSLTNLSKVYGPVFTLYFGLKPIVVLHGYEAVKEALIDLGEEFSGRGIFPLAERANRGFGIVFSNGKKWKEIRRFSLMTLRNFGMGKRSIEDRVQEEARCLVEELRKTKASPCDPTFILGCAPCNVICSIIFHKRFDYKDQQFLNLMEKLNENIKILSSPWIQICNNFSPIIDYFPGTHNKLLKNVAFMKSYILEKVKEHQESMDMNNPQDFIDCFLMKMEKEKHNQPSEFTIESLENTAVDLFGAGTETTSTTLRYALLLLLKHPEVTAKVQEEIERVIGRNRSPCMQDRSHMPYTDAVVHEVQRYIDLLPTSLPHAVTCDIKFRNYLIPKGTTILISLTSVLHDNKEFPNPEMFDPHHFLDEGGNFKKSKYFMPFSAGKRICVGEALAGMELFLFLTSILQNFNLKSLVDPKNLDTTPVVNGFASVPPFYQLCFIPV

[2] = target: CYP2C19 (Homo sapiens (Human), UniProt P33261); test: as above; type: in vitro ADME; conditions: recombinant Bactosomes, 10 minutes, 37° C.
Sequence of CYP2C19 (P33261 whole entry): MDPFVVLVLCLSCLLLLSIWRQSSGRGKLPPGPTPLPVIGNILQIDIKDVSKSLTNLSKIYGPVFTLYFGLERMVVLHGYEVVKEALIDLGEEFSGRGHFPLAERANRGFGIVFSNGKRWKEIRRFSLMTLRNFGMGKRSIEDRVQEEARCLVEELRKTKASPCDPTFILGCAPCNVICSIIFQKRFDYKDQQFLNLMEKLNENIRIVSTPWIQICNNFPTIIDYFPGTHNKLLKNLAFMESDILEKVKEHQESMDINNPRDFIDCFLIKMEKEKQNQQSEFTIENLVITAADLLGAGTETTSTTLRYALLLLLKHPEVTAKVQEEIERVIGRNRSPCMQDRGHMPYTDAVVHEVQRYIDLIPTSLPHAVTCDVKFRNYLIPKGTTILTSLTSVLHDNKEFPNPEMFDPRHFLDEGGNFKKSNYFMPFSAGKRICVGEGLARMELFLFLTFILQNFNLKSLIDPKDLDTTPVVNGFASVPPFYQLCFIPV

[3] = target: CYP2D6 (Homo sapiens (Human), UniProt P10635); test: as above; type: in vitro ADME; conditions: recombinant Bactosomes, 10 minutes, 37° C.
Sequence of CYP2D6 (P10635 whole entry): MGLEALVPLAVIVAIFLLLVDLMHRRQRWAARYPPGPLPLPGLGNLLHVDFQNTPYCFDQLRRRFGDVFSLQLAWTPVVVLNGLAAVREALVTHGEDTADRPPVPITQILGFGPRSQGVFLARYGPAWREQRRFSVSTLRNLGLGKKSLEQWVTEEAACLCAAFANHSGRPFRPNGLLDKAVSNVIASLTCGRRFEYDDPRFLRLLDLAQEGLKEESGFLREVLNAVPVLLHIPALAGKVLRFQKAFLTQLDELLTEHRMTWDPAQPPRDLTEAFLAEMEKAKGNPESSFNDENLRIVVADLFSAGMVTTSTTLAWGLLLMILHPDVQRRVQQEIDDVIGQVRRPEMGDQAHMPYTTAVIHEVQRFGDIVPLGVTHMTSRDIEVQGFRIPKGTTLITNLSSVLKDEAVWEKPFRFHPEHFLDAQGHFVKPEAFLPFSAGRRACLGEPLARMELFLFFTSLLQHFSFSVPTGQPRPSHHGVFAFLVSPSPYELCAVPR

[4] = target: CYP3A4 (Homo sapiens (Human), UniProt P08684); test: as above; type: in vitro ADME; conditions: recombinant Bactosomes, 10 minutes, 37° C.
Sequence of CYP3A4 (P08684 whole entry): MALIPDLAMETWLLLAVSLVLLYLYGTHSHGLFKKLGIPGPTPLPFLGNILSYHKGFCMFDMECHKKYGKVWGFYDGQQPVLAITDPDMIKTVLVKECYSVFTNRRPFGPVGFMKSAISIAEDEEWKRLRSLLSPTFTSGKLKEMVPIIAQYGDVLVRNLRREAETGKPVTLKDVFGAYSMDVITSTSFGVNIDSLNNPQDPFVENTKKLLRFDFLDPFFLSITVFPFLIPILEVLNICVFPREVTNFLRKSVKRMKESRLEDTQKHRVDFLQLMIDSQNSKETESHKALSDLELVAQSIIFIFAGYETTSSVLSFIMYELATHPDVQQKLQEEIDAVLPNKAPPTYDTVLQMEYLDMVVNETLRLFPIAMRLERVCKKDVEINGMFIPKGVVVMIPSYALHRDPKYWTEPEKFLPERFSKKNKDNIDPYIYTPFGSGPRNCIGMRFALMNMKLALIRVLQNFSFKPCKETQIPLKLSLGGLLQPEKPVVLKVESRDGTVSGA

[5] = target: T1, CYP1A2 (Homo sapiens (Human), UniProt P05177); conditions: recombinant enzyme
T1 sequence (P05177 whole entry): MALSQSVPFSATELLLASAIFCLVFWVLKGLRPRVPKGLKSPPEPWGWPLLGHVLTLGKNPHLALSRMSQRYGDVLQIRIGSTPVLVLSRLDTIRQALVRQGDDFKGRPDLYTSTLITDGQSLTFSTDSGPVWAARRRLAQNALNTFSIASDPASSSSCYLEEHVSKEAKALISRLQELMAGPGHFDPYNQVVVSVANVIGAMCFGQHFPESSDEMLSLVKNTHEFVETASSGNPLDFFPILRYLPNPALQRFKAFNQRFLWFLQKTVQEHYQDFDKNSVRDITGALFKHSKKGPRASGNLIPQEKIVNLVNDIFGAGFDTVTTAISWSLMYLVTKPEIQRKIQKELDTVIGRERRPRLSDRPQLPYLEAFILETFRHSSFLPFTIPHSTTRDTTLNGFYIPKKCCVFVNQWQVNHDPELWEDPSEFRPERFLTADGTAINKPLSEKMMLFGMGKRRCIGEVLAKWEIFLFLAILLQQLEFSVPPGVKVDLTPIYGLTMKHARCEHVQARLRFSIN

[6] = system: Thp1 human monocytic cells; test: Thp1 Monocyte ATP Production Assay; type: cell-based; conditions: Thp1 cells, 24 hour incubation, ATPLite, 9-point range 10 μM to 10 nM, mean of 2 independent experiments
Procedure: In vitro potency of test compounds was determined by incubation with Thp1 human monocytic cells and subsequent determination of Adenosine TriPhosphate (ATP) levels using firefly luciferase.
ATP is present in all metabolically active cells. When cells lose integrity, their ability to synthesise ATP is rapidly lost. […] See, e.g., Kang et al., 2015; Jiang et al., 2013. Levels of ATP can be monitored using a system based on firefly (Photinus pyralis) luciferase (see, e.g., Auld et al., 2009) using commercially available kits. A system known as
ATPlite™ was using to measure effects of the test compounds on cellular viability in vitro. This one-step assay system is an adenosine triphosphate (ATP) monitoring system based on the production of light caused by the reaction of ATP from the cells with added luciferase and D-luciferin, as illustrated in the reaction scheme below:
The emitted light is proportional to the ATP concentration.
Thp1 cells were plated at 112500 cells per well in 125 μL RPMI-1640 (no glucose) with 1% FBS in 96-well plates. Test compounds were prepared as 100 mM solutions in DMSO. These stock solutions were diluted in DMSO and then diluted 1000× in culture medium (RPMI) before being added directly to the wells so as to give the desired final compound concentration. After a 24 hour incubation at 37° C./5% CO2, ATPLite™ (Perkin Elmer) was added to each well (1:10 v/v, 10 μL). The plate was then incubated at room temperature for 5 minutes and the emitted light was quantified on Viewlux with a measurement time of 0.3 seconds and binning 4×4.
The average results for each test compound were expressed as a percent (%) of the average control value reflecting cell viability. The average values across the concentrations tested were then plotted and the IC50 for was calculated by fitting the data to a 4-parameter IC50 equation using software from Graf it (Erithacus Software). Each experiment was repeated twice and the data are presented as the mean IC50 from both experiments.

[7] = system: rat hepatocytes; test: Rat hepatocyte stability; type: in vitro ADME; conditions: 1 μM, 60 minute incubation
Procedure: (§1) Metabolic stability of test compounds was measured by determination of the rate of disappearance of the compound when incubated in the presence of rat or human hepatocytes, a primary source of the most important enzymes (cytochrome P450s) involved in drug metabolism. Study of drug stability in the presence of primary hepatocytes is accepted as a valuable model permitting rapid prediction of in vivo drug stability.
(§2) Rat or human hepatocytes were obtained from a commercial source and viability was assessed using a trypan blue solution prior to use. Test compounds (final concentration 1 μM, 0.1% DMSO, 0.9% acetonitrile) or a marker (diclofenac or diltiazem, final assay concentration 1 μM, 0.1% DMSO, 0.9% acetonitrile) were incubated with pooled hepatocytes for a 60 minute period and samples removed at up to 6 time points and analysed by LC-MS/MS for the presence/amount of test compounds.
(§3) Each compound was incubated for 0, 5, 15, 30, 45, or 60 minutes. The reactions were stopped by the addition of methanol containing an internal standard (1 μM Tolbutamide) at the appropriate time points, mixed and placed at −20° C. for ≥1 hour to quench and allow protein to precipitate. All samples were centrifuged (2500×g, 20 minutes, 4° C.). The aliquots were analysed using LC-MS/MS. Reactions were performed in duplicate at 37° C.
(§4) Data were processed, and the results plotted as In(concentration) vs. time. The elimination rate constant (slope of the regression line, k) was calculated using the following formula, where C(t) is the concentration at time t and C(0) is the starting concentration:
(§5) The half-life (t1/2) was calculated using the following formula: […]
(§6) The intrinsic clearance (CIint) was calculated using the following formula, where [cell] is the hepatocyte concentration in the assay: […]

[8] = system: human hepatocytes; test: Human hepatocyte stability; type: in vitro ADME; conditions: human hepatocytes, 1 μM, 60 minute incubation
Procedure: as §1, §2, §3, §4, §5, §6

[9] = system: collagen-induced arthritis in DBA/1j mice; test: Mouse Collagen-Induced Arthritis; type: in vivo; conditions: 10 mg/kg/day, once daily for 14 days, arthritic index vs control
Procedure: Seven- to eight-week-old male DBA/1j mice were used for all procedures. Animals were housed in groups of 10, and were maintained at 21° C.±2° C. on a 12-hour light/dark cycle with food and water ad libitum. Complete Freund's adjuvant (CFA) was prepared by emulsifying bovine type II collagen at 4 mg/mL with a 4 mg/mL suspension of Mycobacterium tuberculosis H37Ra in Incomplete Freund's Adjuvant (IFA) (0.85 mL paraffin oil and 0.15 mL mannide monooleate) in a 1:1 (v/v) ratio. All mice were immunised subcutaneously with 200 μg of bovine type II collagen in CFA. 21 days later, all mice were immunised subcutaneously with 100 μg of bovine type II collagen in IFA. The mice started to develop signs and symptoms of arthritis following the ‘booster’ immunisation.
For macroscopic assessment of arthritis, the following signs were monitored in each paw of each mouse three times per week and summed to generate the Arthritic Index (AI) (the maximum AI for one animal is 16): • 0=no visible effects of arthritis. • 1=oedema and/or erythema of 1 digit. • 2=oedema and/or erythema of 2 digits. • 3=oedema and/or erythema of more than 2 digits. • 4=severe arthritis of entire paw and digits.
Animals were sorted into treatment groups with a mean arthritic index of 2.5 and then dosed once daily for 14 days with compound: by oral gavage for test compounds, or by subcutaneous injection at a dose of 10 mg/kg for the positive control, etanercept. After completion of the experiment, the mice were sacrificed.
The data were analysed by generating an average of the arthritic index across each treatment group. The mean arthritic index was then compared to the arthritic index of control (untreated) animals using the following formula to generate a percentage inhibition of disease.

[10] = target: T1, CYP1A2; test: Human Cytochrome P450 Inhibition Assay (Bactosomes)
[11] = Rat hepatocyte stability; type: in vitro ADME; conditions: rat, pooled rat hepatocytes, 60 minute incubation
Procedure: as §1, §2, §3, §4, §5, §6

[12] = Human hepatocyte stability; type: in vitro ADME; conditions: human, pooled human hepatocytes, human hepatocytes, 1 μM, 60 minute incubation
Procedure: as §1, §2, §3, §4, §5, §6

[13] = Metabolite identification in rats; type: in vivo, Han Wistar rats; conditions: rat, 1 mg/kg intravenous
Procedure: The formation of metabolites in rats was assessed to determine the propensity of the compounds to form a biaryl metabolite.
The corresponding sulfonamide compounds (for example, reference compound HMC-C-01-A) give rise to a sulphonamide metabolite which is persistent and has a long half-life. In addition, the biaryl sulphonamide metabolite acts as an inducer of metabolism in rats, which may complicate the assessment of toxicity in rodents. Therefore, the lower the propensity to form a biaryl sulphonamide metabolite, the greater the potential suitability of the compound for development for human use.
Plasma samples from Han Wistar rats, aged 8-12 weeks, were collected from animals dosed with test compound. Test compounds at a dose of 1 mg/kg were administered intravenously as a solution in 5% NMP, 5% Solutol HS, and 90% normal saline. Animals were given free access to food throughout the study. Blood samples were taken under light isoflurane anaesthesia at 12 time points following an intravenous dose (0.033, 0.1, 0.167, 0.25, 0.5, 1, 2, 4, 6, 8, 12, and 24 hours). The blood samples were collected from a set of three rats at each time point in labelled micro centrifuge tube containing K2EDTA as anticoagulant. Plasma samples were separated by centrifugation of whole blood.
All samples were processed for analysis by protein precipitation using acetonitrile and analysed with a fit-for-purpose LC-MS/MS method.
At the completion of the study, the results were expressed as detection of the metabolite and time course of formation.

Row | Structure (SMILES) | IC50 [1] [µM] | IC50 [2] [µM] | IC50 [3] [µM] | IC50 [4] [µM] | IC50 [5] [µM] | also measured
1 | CC1(O)CCC(NS(=O)(=O)c2ccc(-c3ncc(Cl)cc3C#N)cc2)CC1 (stereo not drawn) [HMC-N-05-A, reference compound] | 27 | > 50 | > 50 | > 50 | 36 | –
2 | CC1(O)CCC(NS(=O)(=O)c2ccc(-c3ccc(Cl)cc3C#N)c(Cl)c2)CC1 (stereo not drawn) [HMC-C-11-A, reference compound] | 2.7 | 5.1 | 9.3 | 12 | 11 | –
3 | CC1(O)CCC(NS(=O)(=O)c2ccc(-c3ccc(C#N)cc3Cl)cc2)CC1 (stereo not drawn) [HMC-C-09-A, reference compound] | 34 | > 50 | > 50 | 33 | 23 | –
4 | CC1(O)CCC(NS(=O)(=O)c2ccc(-c3cc(F)c(F)cc3F)cc2)CC1 (stereo not drawn) [HMC-C-10-B, reference compound] | 2.4 | 8.5 | > 16 | 9.2 | > 16 | –
5 | C[C@]1(O)CC[C@@H](NS(=O)(=O)c2ccc(-c3ccc(F)cc3F)cc2)CC1 [ABD899, reference compound] | 3.9 | 7.3 | 45.3 | 21.6 | – | IC50 [6]: 200 nM; Rat Clint (μL/min/million cells) [7]: 57 μL/min/million cells; Rat t1/2 [7]: 24 min; Human Clint (uL/min/million cells) [8]: 9 uL/min/million cells; Human t1/2 [8]: 149 min; % inhibition of disease [9]: 77%; IC50 [10]: > 25 µM
6 | C[C@]1(O)CC[C@H](CS(=O)(=O)c2ccc(-c3ccc(Cl)cc3C#N)cc2)CC1 [CHMSA-10-B, 4-Chloro-4′-((trans-4-hydroxy-4-methylcyclohexyl)methanesulfonyl)-(1,1′-biphenyl)-2-carbonitrile] | – | – | – | – | – | IC50 ([6]; Homo sapiens, THP-1, 24 h): 1960 nM; hepatocyte CLint at 1 μM ([11]; read-out: Rat Clint (μL/min/million cells)): 336 µL/min/1e6 cells; half-life at 1 μM ([11]; read-out: Rat t1/2): 4.8 min; hepatocyte CLint at 1 μM ([12]; read-out: Human Clint (uL/min/million cells)): 5.8 µL/min/1e6 cells; half-life at 1 μM ([12]; read-out: Human t1/2): 195 min; time after administration at which metabolite MET-002 was detected [13]: 0.5 h; formation of biaryl sulphonamide metabolite (MET-001) in plasma ([13]; up to 24 hours): did not produce any biaryl sulphonamide metabolite; formation of biaryl sulphonic acid metabolite (MET-002) in plasma ([13]; up to 24 hours): detected only transiently; also recorded: only transiently detected
